How the values were obtained:
Assay type in all cases: cell-based, human
[1] = tested on: gastric cancer cells NCI-N87; experiment: HER2 internalization (endocytosis) assay, pHrodo Green staining, flow cytometry; details: 10 μg/mL
Description: (§1) A HER2 internalization assay was performed using pHrodoiFL Green STP ester amine reactive dye (P35369, Invitrogen). […] After a short wash with a wash buffer to remove unbound antibodies, one group of cells was placed on ice for freezing to stop internalization, and the remaining cells were placed in a 37° C. incubator for further incubation. After the co-incubation with the antibody, the cells were fixed with a fixation buffer (420801, Biolegend) for 30 min. Finally, all stained cells were washed with a staining buffer and analyzed on the CytoFLEX LX flow cytometer (Beckman Coulter, USA).

[2] = tested on: gastric cancer cells SNU216; experiment: as above; details: 10 μg/mL
Description: as §1

NCI-N87 cells = experiment: Apoptosis assay (Caspase-Glo 3/7); details: 24 h treatment
Description: The apoptosis was assessed by measuring the activity of caspases 3/7 in gastric cancer NCI-N87 cells using the Caspase-Glo®3/7 Assay system. A xenograft human gastric cancer NCI-N87 model and a human gastric cancer PDX model were treated with the antibodies at given doses. All data are presented as mean±SEM. The p values were calculated using Student's t test. ** denotes p<0.01, and * denotes p<0.05.
The apoptosis was assessed by measuring the activity of caspases 3/7 in NCI-N87 cells using the Caspase-Glo®3/7 Assay (G8093, Promega) system. The cells were seeded in a 96-well plate (CLS3799, Corning) at about 1.5×10^4 cells/well and incubated overnight. The original medium was replaced with a drug-containing culture medium of 100 μL, and the cells were treated for 24 h. After an incubation at room temperature for 30 min, 100 μL of Caspase-Glo 3/7 reagent was added. The plate was incubated in the dark for 30 min and detected using Spark (Tecan, Switzerland) after gentle shaking.

pertuzumab: antibody comprising heavy chain SEQ ID NO: 13 and light chain SEQ ID NO: 14 [reference compound]
HER2 internalization (endocytosis) [1]: weak endocytosis
HER2 internalization (endocytosis) [2]: weak endocytosis
apoptosis (caspases 3/7 activity) (NCI-N87 cells): did not significantly induce the apoptosis of NCI-N87 cells
